Results on two compounds are retold here after the NIST ThermoML archive (doi:10.1021/je801009z).

The conditions of the data set: Vibrating tube method.

Structures are written as SMILES. Values joined by “and” are separate entries in the source; they are usually repeats but may differ in a detail not shown here. Equal entries are not always repeated. Numbers after ± are expanded uncertainties.

For orientation: mass density means mass per unit of volume. For `FCC(F)(F)F` [1,1,1,2-tetrafluoroethane], the mass density (288 K, 19600 kPa, Liquid) was 1290 ± 120 kg/m3; the mass density (298 K, 19600 kPa, Liquid) was 1270 ± 60 kg/m3; the mass density (308 K, 5000 kPa, Liquid) is 1150 ± 100 kg/m3; the mass density (308 K, 10100 kPa, Liquid) was found to be 1180 ± 60 kg/m3; the mass density (308 K, 15400 kPa, Liquid) was 1210 ± 10 kg/m3; the mass density (308 K, 19600 kPa, Liquid) is 1240 ± 10 kg/m3 and 1240 ± 60 kg/m3. In addition, the mass density is on record as 1260 ± 100 kg/m3 (308 K, 23700 kPa, Liquid); 1210 ± 60 kg/m3 (318 K, 19600 kPa, Liquid); 1180 ± 120 kg/m3 (328 K, 19600 kPa, Liquid).
`O=C=O` [carbon dioxide]: the mass density was 870 ± 120 kg/m3 (308 K, 20000 kPa, Fluid (supercritical or subcritical phases)); 570 kg/m3 (313 K, 10000 kPa, Fluid (supercritical or subcritical phases)); 780 ± 20 kg/m3 (313 K, 15000 kPa, Fluid (supercritical or subcritical phases)); 850 ± 80 kg/m3 and 830 ± 60 kg/m3 (313 K, 20000 kPa, Fluid (supercritical or subcritical phases)); 890 ± 180 kg/m3 (313 K, 25000 kPa, Fluid (supercritical or subcritical phases)); 900 ± 200 kg/m3 (313 K, 36000 kPa, Fluid (supercritical or subcritical phases)). Moreover, the mass density was found to be 820 ± 20 kg/m3 (318 K, 20000 kPa, Fluid (supercritical or subcritical phases)); 790 ± 20 kg/m3 (323 K, 20000 kPa, Fluid (supercritical or subcritical phases)); 760 ± 80 kg/m3 (328 K, 20000 kPa, Fluid (supercritical or subcritical phases)); 730 ± 140 kg/m3 (333 K, 20000 kPa, Fluid (supercritical or subcritical phases)).
